Experimental data: patent US7803788B2, “Prodrugs of phosphonate nucoleotide analogues” (Gilead Sciences, Inc., priority 2000, dated 2010)
Read-outs that look alike come from different tables or passages of the source.

Key:
[1] = system: HIV-1; assay: In vitro anti-HIV-1 activity in MT-2 cells; assay type: cell-based
[2] = system: MT-2 cells; assay: Cytotoxicity in MT-2 cells; conditions: Table 4
[3] = dogs, oral, 10 mg-equivalent of PMPA/kg
Method: Formulations. The prodrugs were formulated as solutions in 50 mM citric acid within 0.5 hour prior to dose. All compounds used in the studies were synthesized by Gilead Sciences. The following lots were used:
Dose Administration and Sample Collection. The in-life phase of this study was conducted in accordance with the recommendations of the “Guide for the Care and Use of Laboratory Animals” (National Institutes of Health publication 86-23) and was approved by an Institutional Animal Care and Use Committee. Fasted male beagle dogs (10±2 kg) were used for the studies. Each drug was administered as a single dose by oral gavage (1.5-2 ml/kg). The dose was 10 mg-equivalent of PMPA/kg. […] Blood (1.0 ml) was processed immediately for plasma by centrifugation at 2,000 rpm for 10 min. Plasma samples were frozen and maintained at […] until analyzed.
Peripheral Blood Mononuclear Cell (PBMC) preparation. Whole blood (8 ml) drawn at specified time points was mixed in equal proportion with phosphate buffered saline (PBS), layered onto 15 ml of Ficoll-Paque solution (Pharmacia Biotech,) and centrifuged at 400×g for 40 min. PBMC layer was removed and washed once with PBS. Formed PMBC pellet was reconstituted in 0.5 ml of PBS, cells were resuspended, counted using hemocytometer and maintained at […] until analyzed. The number of cells multiplied by the mean single-cell volume was used in calculation of intracellular concentrations. […] Agents Chemother.
Determination of PMPA and Prodrugs in plasma and PBMCs. […] Derivatized samples were then evaporated to dryness and reconstituted in 100 μl of water for HPLC analysis.
Before intracellular PMPA could be determined by HPLC, the large amounts of adenine related ribonucleotides present in the PBMC extracts had to be removed by selective oxidation.
The mobile phases used were: A, 5% acetonitrile in 25 mM potassium phosphate buffer with 5 mM tetrabutyl ammonium bromide (TBABr), pH 6.0; B, 60% acetonitrile in 25 mM potassium phosphate buffer with 5 mM TBABr, pH 6.0. The flow rate was 2 ml/min and the column temperature was maintained at 35° C. by a column oven. […] Data was acquired and stored by a laboratory data acquisition system (PeakPro, Beckman, Allendale, N.J.).
Pharmacokinetic Calculations. […] The AUC values were calculated using the trapezoidal rule.

[4] = Excretion and tissue distribution of radiolabelled GS-7340 in dogs; conditions: for % Dose / Conc.: dogs, oral 10 mg-eq. PMPA/kg
Method: Plasma and peripheral blood mononuclear cells (PBMCs) were obtained over the 24-hr period. Urine and feces were cage collected over 24 hr. At 24 h after the dose, the animals were sacrificed and tissues removed for analysis. Total radioactivity in tissues was determined by oxidation and liquid scintillation counting.

[5] = Stability in human plasma; assay type: in vitro ADME; conditions: 37° C., TBS pH 7.5
Method: (§1) The in vitro metabolism and stability of separated diastereomers were determined in PLCE, MT-2 extract and human plasma. A biological sample listed below, 80 μL, was transferred into a screw-capped centrifuge tube and incubated at 37° C. for 5 min. A solution containing 0.2 mg/mL of the test compound in a suitable buffer, 20 μL, was added to the biological sample and mixed. The reaction mixture, 20 μL, was immediately sampled and mixed with 60 μL of methanol containing 0.015 mg/mL of 2-hydroxymethylnaphthalene as an internal standard for HPLC analysis. The sample was taken as the time-zero sample. Then, at specific time points, the reaction mixture, 20 μL, was sampled and mixed with 60 μl of methanol containing the internal standard. The mixture thus obtained was centrifuged at 15,000 G for 5 min and the supernatant was analyzed with HPLC under the conditions described below.
(§2) The biological samples evaluated are as follows, • (1) PLCE (porcine liver carboxyesterase from Sigma, 160 u/mg protein, 21 mg protein/mL) diluted 20 fold with PBS (phosphated-buffered saline). • (2) MT-2 cell extract was prepared from MT-2 cells according to the published procedure [A. Pompon, I. Lefebvre, J.-L. Imbach, S. Kahn, and D. Farquhar, “Antiviral Chemistry & Chemotherapy”, 5:91-98 (1994)] except for using HEPES buffer described below as the medium. • (3) Human plasma (pooled normal human plasma from George King Biomedical Systems, Inc.)
In the study for human plasma, the test compound was dissolved in TBS. TBS (tris-buffered saline, Sigma) contains 0.05 M Tris, 0.0027 M potassium chloride, and 0.138 M sodium chloride. pH 7.5 at 37° C.
(§3) The HPLC analysis was carried out under the following conditions.

[6] = Stability / hydrolysis in MT-2 cell extract; assay type: in vitro ADME; conditions: 37° C., HEPES buffer pH 7.4
Method: as §1, §2
In the study for MT-2 cell extracts, the test compound was dissolved in HEPES buffer. HEPES buffer contains 0.010 M HEPES, 0.05 M potassium chloride, 0.005 M magnesium chloride, and 0.005 M dl-dithiothreitol. pH 7.4 at 37° C.
as §3

[7] = Table 4, activity of isomer A over isomer B
[8] = Table 4, effect of diastereomer, read-out: IC50
[9] = Table 5 (selected IC50 data from Table 4), read-out: HIV IC50

## CCOC(=O)C(C)NP(=O)(COC(C)Cn1cnc2c(N)ncnc21)Oc1ccccc1 (mixture of isomers) [Ala-ethyl, Phenyl PMPA, Ethyl L-Alanyl Amidate]
[1]; Table 4, IC50 relative to PMPA
  Fold change: 250x
[1]; [7]
  A/B activity: 10x
[2]
  CC50: 60000 nM

## COC(=O)C(C)NP(=O)(COC(C)Cn1cnc2c(N)ncnc21)Oc1ccccc1 (mixture of isomers) [Ala-methylester]
[1]; Table 4, IC50 relative to PMPA
  Fold change: 200x
[1]; [7]
  A/B activity: 20x
[2]
  CC50: 80000 nM

## CCOC(=O)CNP(=O)(COC(C)Cn1cnc2c(N)ncnc21)Oc1ccccc1 (mixture of isomers) [Gly-ethylester]
[1]
  A/B activity: 20x
  Fold change: 10x
[1]; read-out: IC50
  IC50: 500 nM

## COC(=O)C(C)NP(=O)(COC(C)Cn1cnc2c(N)ncnc21)Oc1ccccc1 (single isomer, unassigned) [GS-6957a]
[1]; Table 4, IC50 relative to PMPA
  Fold change: 670x

## COC(=O)C(C)NP(=O)(COC(C)Cn1cnc2c(N)ncnc21)Oc1ccccc1 (single isomer, unassigned) [GS-6957b]
[1]; Table 4, IC50 relative to PMPA
  Fold change: 33x

## COC(=O)C(Cc1ccccc1)NP(=O)(COC(C)Cn1cnc2c(N)ncnc21)Oc1ccccc1 (single isomer, unassigned) [GS-7003a]
[1]
  Fold change: 500x

## COC(=O)C(Cc1ccccc1)NP(=O)(COC(C)Cn1cnc2c(N)ncnc21)Oc1ccccc1 (single isomer, unassigned) [GS-7003b]
[1]
  Fold change: 50x

## CCOC(=O)C(C)NP(=O)(COC(C)Cn1cnc2c(N)ncnc21)Oc1ccccc1 (single isomer, unassigned) [GS-7114]
[1]; [8]
  IC50: 5 nM
[1]; Table 4, IC50 relative to PMPA
  Fold change: 1,000x
[3]
  PBMC/Plasma Exposure Ratio: 122
  Prodrug in Plasma: YES

## CCOC(=O)C(C)NP(=O)(COC(C)Cn1cnc2c(N)ncnc21)Oc1ccccc1 (single isomer, unassigned) [GS-7115]
[1]; [8]
  IC50: 50 nM
[1]; Table 4, IC50 relative to PMPA
  Fold change: 100x
[3]
  PBMC/Plasma Exposure Ratio: 43
  Prodrug in Plasma: YES

## CCOC(=O)CNP(=O)(COC(C)Cn1cnc2c(N)ncnc21)Oc1ccccc1 (single isomer, unassigned) [GS-7335]
[1]
  Fold change: 5x

## CC(C)OC(=O)C(C)NP(=O)(COC(C)Cn1cnc2c(N)ncnc21)Oc1ccccc1 (single isomer, unassigned) [compound 4]
[1]; [9]
  IC50: 60 nM

## CCOC(=O)[C@H](CC)NP(=O)(CO[C@H](C)Cn1cnc2c(N)ncnc21)Oc1ccccc1 (some centres unmarked) [ABA-ethyl]
[1]
  A/B activity: 7.5x
  Fold change: 625x
[2]
  CC50: > 100000 nM

## CCOC(=O)CNP(=O)(CO[C@H](C)Cn1cnc2c(N)ncnc21)Oc1ccccc1 (some centres unmarked) [GS-7119]
[1]
  Fold change: 100x
[2]
  CC50: > 100000 nM

## CC(C)OC(=O)[C@H](C)N[P@](=O)(CO[C@H](C)Cn1cnc2c(N)ncnc21)Oc1ccccc1 [GS-7339]
[1]; [8]
  IC50: 60 nM
[2]
  CC50: > 100000 nM

## CCOC(=O)C(CC)NP(=O)(COC(C)Cn1cnc2c(N)ncnc21)Oc1ccccc1 (centres unmarked) [GS-7342]
[1]
  Fold change: 1,250x

## C[C@H](Cn1cnc2c(N)ncnc21)OCP(=O)(O)O [PMPA, (R)-9-[2-(phosphonomethoxy)propyl]adenine, reference compound]
[1]
  Fold change: 1x

## COC(=O)[C@H](Cc1ccccc1)NP(=O)(CO[C@H](C)Cn1cnc2c(N)ncnc21)Oc1ccccc1 (some centres unmarked) [Phe-methylester]
[1]
  A/B activity: 10x
  Fold change: 170x

## CC(C)OC(=O)OCOP(=O)(CO[C@H](C)Cn1cnc2c(N)ncnc21)OCOC(=O)OC(C)C.O=C(O)/C=C/C(=O)O [TDF, tenofovir disoproxil fumarate]
[4]; Abdominal fat
  % Dose: 0.00%
  Conc.: 0.16 ug-eq/g
[4]; Adrenal Gland
  % Dose: 0.00%
  Conc.: 1.90 ug-eq/g
[4]; Axillary Lymph Nodes
  % Dose: 0.00%
  Conc.: 0.37 ug-eq/g
[4]; Bile
  % Dose: 0.00%
[4]; Bone Marrow
  % Dose: 0.00%
  Conc.: 0.20 ug-eq/g
[4]; Brain
  % Dose: 0.00%
  Conc.: <LOD
[4]; Cerebrospinal Fluid
  % Dose: 0.00%
  Conc.: <LOD
[4]; Duodenum
  % Dose: 0.49%
[4]; Eye (L + R)
  % Dose: 0.00%
  Conc.: 0.06 ug-eq/g
[4]; Femoral Bone
  % Dose: 0.00%
  Conc.: 0.08 ug-eq/g
[4]; Gall bladder
  % Dose: 0.00%
[4]; Heart
  % Dose: 0.03%
  Conc.: 0.46 ug-eq/g
[4]; Ileum
  % Dose: 0.01%
  Conc.: 0.50 ug-eq/g
[4]; Iliac Lymph Nodes
  % Dose: 0.00%
  Conc.: 0.51 ug-eq/g
[4]; Inguinal Lymph Nodes
  % Dose: 0.00%
  Conc.: 0.28 ug-eq/g
[4]; Lungs
  % Dose: 0.03%
  Conc.: 0.53 ug-eq/g
[4]; Mesenteric Lymph Nodes
  % Dose: 0.00%
  Conc.: 1.20 ug-eq/g
[4]; Pancreas
  % Dose: 0.00%
  Conc.: 0.57 ug-eq/g
[4]; Pituitary Gland
  % Dose: 0.00%
  Conc.: 0.23 ug-eq/g
[4]; Prostate
  % Dose: 0.00%
  Conc.: 0.23 ug-eq/g
[4]; Salivary Gland (L + R)
  % Dose: 0.00%
  Conc.: 0.45 ug-eq/g
[4]; Skeletal Muscle
  % Dose: 0.00%
  Conc.: 0.11 ug-eq/g
[4]; Skin
  % Dose: 0.00%
  Conc.: 0.13 ug-eq/g
[4]; Spinal Cord
  % Dose: 0.00%
  Conc.: <LOD
[4]; Spleen
  % Dose: 0.00%
  Conc.: 0.63 ug-eq/g
[4]; Stomach
  % Dose: 0.11%
[4]; Testes (L + R)
  % Dose: 0.02%
[4]; Thyroid Gland
  % Dose: 0.00%
  Conc.: 0.30 ug-eq/g
[4]; Whole Blood
  % Dose: 0.00%
  Conc.: 0.85 ug-eq/g
[4]; dog, in vivo
  prodrug concentration in the plasma: below the level of assay detection

## CC(C)OC(=O)[C@H](C)N[P@](=O)(CO[C@H](C)Cn1cnc2c(N)ncnc21)Oc1ccccc1 [compound 3]
[1]; [9]
  IC50: 5 nM
[5]
  Human Plasma Stability (HP) t1/2: 90.0 min
[6]
  MT-2 extract hydrolysis product: Met. X & PMPA

## CC(C)OC(=O)OCOP(=O)(CO[C@H](C)Cn1cnc2c(N)ncnc21)OCOC(=O)OC(C)C [compound 7]
[5]
  Human Plasma Stability (HP) t1/2: 0.41 min
